From article PMC8011926 (Journal of Medicinal Chemistry, 2020)
Non-standard residues stand in square brackets, D forms with d. Residues, ends and D or L forms follow the SMILES beside them.

Biological target: T1, mu opioid receptor (mu-RLuc/Gβ1-RGFP) (Homo sapiens, UniProt P35372)
T1 construct: expressed in transfected cells; host or cells: SH-SY5Y (enriched plasma membranes)
Format: biochemical
Description: For this study, human embryonic kidney (HEK293) cells, permanently co-expressing the different pairs of fusion proteins NOP-RLuc/Gβ1-RGFP and NOP-RLuc/β-arrestin 2-RGFP, and SH-SY5Y cells stably, co-expressing the different pairs of fusion proteins mu-RLuc/Gβ1-RGFP and mu-RLuc/β-arrestin 2-RGFP or delta-RLuc/Gβ1-RGFP and delta-RLuc/β-arrestin 2-RGFP, were used. Cells were prepared and cultured, as described previously.[19],[23] […] The protein concentration in membrane preparations was determined using the QPRO-BCA kit (Cyanagen Srl, Bologna, IT) and the Ensight (PerkinElmer, Waltham, USA) in the spectrophotometer mode.
Luminescence in membranes was recorded in 96-well untreated white opaque microplates, while in whole cells, it was recorded in 96-well sterile poly-D-lysine-coated white opaque microplates (PerkinElmer, Waltham, MA, USA) using the luminometer Victor 2030 (PerkinElmer, Waltham, MA, USA). […] Coelenterazine at a final concentration of 5 μM was injected 15 min prior to reading the cell plate. Different concentrations of ligands in 20 μL of PBS–BSA 0.01% were added and incubated 5 min before reading luminescence. […] The BRET ratio was measured 15 min after agonist injection. […]
The pharmacological terminology adopted in this paper is consistent with IUPHAR recommendations.[68] All data are expressed as the mean ± sem of five independent experiments made in duplicate. […]

T1 sequence (P35372 whole entry, species assumed): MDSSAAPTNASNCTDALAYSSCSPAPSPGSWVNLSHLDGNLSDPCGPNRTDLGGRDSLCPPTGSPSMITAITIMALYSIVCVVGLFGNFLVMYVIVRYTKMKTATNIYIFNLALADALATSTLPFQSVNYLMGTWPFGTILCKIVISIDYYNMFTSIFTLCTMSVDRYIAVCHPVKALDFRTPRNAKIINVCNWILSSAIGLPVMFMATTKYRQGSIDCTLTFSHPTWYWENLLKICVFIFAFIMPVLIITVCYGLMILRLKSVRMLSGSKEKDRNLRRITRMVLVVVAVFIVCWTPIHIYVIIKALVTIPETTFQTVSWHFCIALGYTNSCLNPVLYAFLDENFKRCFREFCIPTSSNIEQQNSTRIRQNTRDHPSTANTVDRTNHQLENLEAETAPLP

CSCC[C@H](NC(=O)[C@H](CC(C)C)NC(=O)[C@H](Cc1c[nH]cn1)NC(=O)[C@H](Cc1ccccc1)NC(=O)[C@@H](CCSC)NC(=O)[C@@H](N)Cc1ccc(O)cc1)C(=O)N[C@@H](CC(=O)O)C(N)=O [Deltorphin A] (H-Y[dM]FHLMD-NH2)
mu/G protein pEC50 (CL95%): crc incomplete
